Assay results: the NIST ThermoML archive (doi:10.1021/acs.jced.8b00181)

Assays:
[1] = refractive index (Na D-line) (dimensionless); details: 298 K; 101.33 kPa; Liquid; Standard Abbe refractometry
[2] = mn = molality of the nth substance listed, in mol/kg; details: 298 K, 100 kPa, Liquid, Frequency=0.001 MHz, Alternating current cell with electrodes
[3] = refractive index (Na D-line) (dimensionless); mn = molality of the nth substance listed, in mol/kg; details: 298 K, 100 kPa, Liquid, Standard Abbe refractometry
[4] = 298 K; 100 kPa; Liquid; Frequency=0.001 MHz; Alternating current cell with electrodes

CCCO [propan-1-ol]
Details | refractive index
[1] | 1.3834

CCO [ethanol]
Details | refractive index
[1] | 1.36

CC(C)O [propan-2-ol]
Details | refractive index
[1] | 1.3758

CCCO [propan-1-ol] + O
Details | electrical conductivity, m1 = 0.87 [S/m] | electrical conductivity, m1 = 1.49 [S/m] | electrical conductivity, m1 = 2.76 [S/m] | electrical conductivity, m1 = 4.29 [S/m] | electrical conductivity, m1 = 6.77 [S/m] | refractive index, m1 = 0.87 | refractive index, m1 = 1.49 | refractive index, m1 = 2.76 | refractive index, m1 = 4.29 | refractive index, m1 = 6.77
[2] | 0.000153 | 0.000145 | 0.000111 | 0.000117 | 0.000143 | – | – | – | – | –
[3] | – | – | – | – | – | 1.3381 | 1.3414 | 1.3465 | 1.3516 | 1.3572

CC(C)O [propan-2-ol] + O
Details | electrical conductivity, [2] [S/m] | refractive index, [3]
m1 = 0.85 | 0.000134 | 1.3374
m1 = 1.45 | 0.000141 | 1.3408
m1 = 2.84 | 8.2e-05 | 1.3467
m1 = 4.36 | 9.4e-05 | 1.3511
m1 = 8.72 | 5e-05 | 1.361
m1 = 13.08 | 4.7e-05 | 1.365

CCO [ethanol] + O
Details | electrical conductivity, [2] [S/m] | refractive index, [3]
m1 = 0.9 | 0.000248 | 1.3362
m1 = 1.46 | 0.000259 | 1.3375
m1 = 2.69 | 0.000287 | 1.34
m1 = 4.09 | 0.000311 | 1.3431
m1 = 7.59 | 0.000251 | 1.3497
m1 = 9.51 | 0.000252 | 1.3521

O [water]
Details | electrical conductivity [S/m] | refractive index
[1] | – | 1.3327
[4] | 0.000502 | –

CCCCCCCCCCCCOS(=O)(=O)[O-].[Na+] [sodium dodecyl sulfate] + O
[2]
Details | electrical conductivity [S/m]
m1 = 0.00099 | 0.00957
m1 = 0.00198 | 0.0183
m1 = 0.00297 | 0.0271
m1 = 0.00396 | 0.0357
m1 = 0.00495 | 0.0443
m1 = 0.00594 | 0.0528
m1 = 0.00693 | 0.061
m1 = 0.00792 | 0.0684
m1 = 0.00891 | 0.074
m1 = 0.0099 | 0.0777
m1 = 0.01089 | 0.0813
m1 = 0.01188 | 0.0846
m1 = 0.01287 | 0.0878
m1 = 0.01386 | 0.09108
